The IC50 is the concentration that inhibits the measured activity by half. A higher IC50 goes with weaker potency.

For data set [1], the target named is T1, Macrophage colony-stimulating factor 1 receptor (Homo sapiens, UniProt P07333). As to the kind of experiment: Inhibition of ATP-induced autophosphorylation of cFMS tyrosine kinase in HEK 293 cells. In kind it is cell-based, HEK293.
The target in data set [2] is T1, Macrophage colony-stimulating factor 1 receptor. As to the kind of experiment: Inhibition of ATP-induced autophosphorylation of cFMS tyrosine kinase.
A short description of data set [3]: Metabolic stability in human liver microsomes after 10 mins. It is filed as ADME, Microsome. The note with it: read-out: Stability.

Each structure is given as a SMILES string.

T1 sequence (P07333 whole entry): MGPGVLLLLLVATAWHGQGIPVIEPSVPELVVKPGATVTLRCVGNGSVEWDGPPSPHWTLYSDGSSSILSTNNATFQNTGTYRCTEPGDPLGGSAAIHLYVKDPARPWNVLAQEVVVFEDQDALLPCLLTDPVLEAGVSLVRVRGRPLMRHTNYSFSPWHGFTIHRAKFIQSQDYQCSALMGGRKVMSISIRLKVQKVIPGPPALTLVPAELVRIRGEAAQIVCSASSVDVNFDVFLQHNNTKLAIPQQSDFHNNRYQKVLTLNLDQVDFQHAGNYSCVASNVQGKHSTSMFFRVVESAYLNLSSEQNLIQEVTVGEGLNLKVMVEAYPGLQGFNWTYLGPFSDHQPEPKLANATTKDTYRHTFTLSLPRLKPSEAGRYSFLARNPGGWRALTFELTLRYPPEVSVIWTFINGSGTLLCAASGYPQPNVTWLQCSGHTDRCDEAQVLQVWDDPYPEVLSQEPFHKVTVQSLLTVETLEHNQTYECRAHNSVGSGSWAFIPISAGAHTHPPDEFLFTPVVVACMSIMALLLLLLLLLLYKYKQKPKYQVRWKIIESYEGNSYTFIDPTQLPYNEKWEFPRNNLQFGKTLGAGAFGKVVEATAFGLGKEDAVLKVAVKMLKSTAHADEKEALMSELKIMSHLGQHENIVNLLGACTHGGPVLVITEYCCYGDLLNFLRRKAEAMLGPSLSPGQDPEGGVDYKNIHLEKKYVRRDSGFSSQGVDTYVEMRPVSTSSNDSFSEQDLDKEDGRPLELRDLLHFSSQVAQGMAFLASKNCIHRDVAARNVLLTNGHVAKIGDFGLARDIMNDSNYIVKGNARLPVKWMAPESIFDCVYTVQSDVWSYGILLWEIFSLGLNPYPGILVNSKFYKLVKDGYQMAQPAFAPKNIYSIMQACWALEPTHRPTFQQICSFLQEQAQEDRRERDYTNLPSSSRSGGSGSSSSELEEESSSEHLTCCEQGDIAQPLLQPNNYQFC

On to `O=C(Nc1ccccc1N1CCCCC1)c1cc([N+](=O)[O-])c[nH]1`, for which the IC50 in data set [1] was 180 nM; in data set [2], 47 nM.
Regarding `O=C(Nc1ccccc1N1CCNCC1)c1ccc([N+](=O)[O-])o1`, the IC50 in data set [2] is above 10000 nM.
On to `O=C(Nc1ccccc1N1CCC(O)CC1)c1ccc([N+](=O)[O-])o1`, for which the IC50 was determined as 370 nM in data set [1] and 140 nM in data set [2].
Turning to `CCCN(CCC)c1ccccc1NC(=O)c1ccc([N+](=O)[O-])o1`, in data set [2], the IC50 is above 10000 nM.
For `CC1CCCN(c2ccccc2NC(=O)c2ccc([N+](=O)[O-])o2)C1` (stereo unspecified), the IC50 in data set [1] was 2200 nM; in data set [2], 380 nM.
On to `CC1CCN(c2ccccc2NC(=O)c2ccc([N+](=O)[O-])o2)CC1`, for which the values for the IC50 in data set [1] and in data set [2] were 300 nM and 78 nM, respectively. The remaining at 10 min in data set [3] was found to be 100%.
In the case of `N#Cc1ccc(C(=O)Nc2cc(N3CCCCC3)ccc2N2CCCCC2)o1`, the IC50 stood at 76 nM in data set [1] and 17 nM in data set [2].
For `N#Cc1ccc(C(=O)Nc2cc(C(=O)O)ccc2N2CCCCC2)o1`, the IC50 in data set [1] and in data set [2] was above 2000 nM each time.
In turn, `O=C(Nc1ccccc1N1CCOCC1)c1ccc([N+](=O)[O-])o1` came in with an IC50 in data set [2] of 1100 nM.
Turning to `COc1ccc(N2CCCCC2)c(NC(=O)c2ccc(C#N)o2)c1`, the IC50 turned out to be 960 nM in data set [1] and 90 nM in data set [2].
On to `N#Cc1ccc(C(=O)Nc2cc(CN=C(N)N)ccc2N2CCCCC2)o1`, for which the IC50 stood at 2600 nM in data set [1] and 34 nM in data set [2].
For the compound `O=C(Nc1ccccc1N1CCC(CO)C1)c1ccc([N+](=O)[O-])o1` (stereo unspecified), the IC50 in data set [2] is above 10000 nM.
In the case of `O=C(Nc1ccccc1N1CCC(CO)CC1)c1ccc([N+](=O)[O-])o1`, the figures for the IC50 in data set [1] and in data set [2] were 1400 nM and 130 nM, respectively.
With `O=C(Nc1ccccc1N1CCCCC1)c1ccc(C(F)(F)F)o1`, in data set [2], the IC50 was above 10000 nM.
The same measure, in the same setting: the same measure for `O=C(O)c1ccc(C(=O)Nc2ccccc2N2CCCCC2)o1`: above 10000 nM.
For `CS(=O)(=O)NCc1ccc(N2CCCCC2)c(NC(=O)c2ccc(C#N)o2)c1`, the IC50 in data set [1] amounted to 310 nM; in data set [2], 37 nM.
For the compound `CCCN(CC)c1ccccc1NC(=O)c1ccc([N+](=O)[O-])o1`, in data set [2], the IC50 is above 10000 nM.
Turning to `N#Cc1c[nH]c(C(=O)Nc2ccccc2N2CCCCC2)c1`, the IC50 worked out at 150 nM in data set [1] and 47 nM in data set [2].
In data set [2], `O=C(Nc1ccccc1N1CCC1)c1ccc([N+](=O)[O-])o1` gave an IC50 above 10000 nM.
Still for that read-out and setting: with `O=C(Nc1ccccc1N1CCCCC1)c1ccc(Cl)o1` the figure was 1900 nM; with `Nc1ccc(C(=O)Nc2ccccc2N2CCCCC2)o1`, above 10000 nM.
For `O=Cc1ccc(C(=O)Nc2ccccc2N2CCCCC2)o1`, in data set [2], half-maximal inhibition (IC50) was put at 1100 nM.
In the case of `N#Cc1ccc(C(=O)Nc2ccccc2N2CCCCC2)o1`, the IC50 in data set [1] was found to be 370 nM; in data set [2] it was 36 nM.
On to `CC1CCCCN1c1ccccc1NC(=O)c1ccc([N+](=O)[O-])o1` (stereo unspecified), for which the IC50 in data set [2] came out at 720 nM.
`O=C(Nc1ccccc1N1CCCCC1)c1ccco1`: the IC50 in data set [2] was above 10000 nM.
In data set [2], `NC(=O)c1ccc(C(=O)Nc2ccccc2N2CCCCC2)o1` showed an IC50 above 10000 nM.
`CC1CC(C)CN(c2ccccc2NC(=O)c2ccc([N+](=O)[O-])o2)C1` (stereo unspecified): in data set [2], the midpoint of inhibition, the IC50, lay at 5300 nM.
With `N#Cc1ccc(C(=O)Nc2cc(O)ccc2N2CCCCC2)o1`, the IC50 worked out at 2700 nM in data set [1] and 17 nM in data set [2].
`O=C(Nc1ccccc1N1CCCCC1)c1ccc(Nc2ccccc2)o1` gave an IC50 in data set [2] above 10000 nM.
On the same count and under the same terms, with `O=C(Nc1ccccc1Nc1ccccc1)c1ccc([N+](=O)[O-])o1` the figure was above 10000 nM; with `O=C(Nc1ccccc1N1CCCCC1)c1ccc(Br)o1`, 4400 nM.
Consider `O=C(Nc1ccccc1N1CCC(CCO)CC1)c1ccc([N+](=O)[O-])o1`, for which the figures for the IC50 in data set [1] and in data set [2] were 230 nM and 43 nM, respectively.
Take `N#Cc1ccc(C(=O)Nc2cc(CO)ccc2N2CCCCC2)o1`: the IC50 in data set [1] is 190 nM; in data set [2], 25 nM. Besides, in data set [3], the remaining at 10 min came out at 25%.
With `N#Cc1ccc(N2CCCCC2)c(NC(=O)c2ccc(C#N)o2)c1`, the IC50 in data set [1] was 750 nM; in data set [2], 120 nM.
On to `O=C(Nc1ccccc1N1CCN(c2ccccc2)CC1)c1ccc([N+](=O)[O-])o1`, for which the IC50 in data set [2] is above 10000 nM.
As to `O=C(Nc1ccccc1N1C=CC=CC=C1)c1ccc([N+](=O)[O-])o1`, the IC50 is 2000 nM in data set [1] and 260 nM in data set [2].
Turning to `N#Cc1ccc(C(=O)Nc2cc(CN)ccc2N2CCCCC2)o1`, the IC50 in data set [1] was determined as 3100 nM; in data set [2] it was 200 nM.
For `O=C(Nc1ccccc1N1CCCCC1)c1ccc(-c2ccccc2)o1`, the IC50 in data set [2] was above 10000 nM.
On to `N#Cc1ccc(C(=O)Nc2cc(C=O)ccc2N2CCCCC2)o1`, for which the values for the IC50 in data set [1] and in data set [2] were 330 nM and 37 nM, respectively.
`O=C(Nc1ccccc1N1CCCC1)c1ccc([N+](=O)[O-])o1` registered a 50% inhibitory concentration (IC50) in data set [2] of 1900 nM.
As to `O=C(Nc1ccccc1N1CCC(O)C1)c1ccc([N+](=O)[O-])o1` (stereo unspecified), the IC50 in data set [2] was above 10000 nM.
Turning to `CC1CCN(c2ccc(CO)cc2NC(=O)c2ccc(C#N)o2)CC1`, the remaining at 10 min in data set [3] was 83%.
Consider `N#Cc1ccc(C(=O)Nc2cc(COCC(O)CO)ccc2N2CCCCC2)o1` (stereo unspecified), for which the IC50 in data set [1] amounted to 170 nM; in data set [2], 19 nM.
For `O=C(Nc1ccccc1N1CCCCC1)c1ccc([N+](=O)[O-])o1`, the remaining at 10 min in data set [3] was found to be 41%.
